Target: T1, M-phase inducer phosphatase 2 (Homo sapiens, UniProt P30305)
T1 sequence (P30305 whole entry): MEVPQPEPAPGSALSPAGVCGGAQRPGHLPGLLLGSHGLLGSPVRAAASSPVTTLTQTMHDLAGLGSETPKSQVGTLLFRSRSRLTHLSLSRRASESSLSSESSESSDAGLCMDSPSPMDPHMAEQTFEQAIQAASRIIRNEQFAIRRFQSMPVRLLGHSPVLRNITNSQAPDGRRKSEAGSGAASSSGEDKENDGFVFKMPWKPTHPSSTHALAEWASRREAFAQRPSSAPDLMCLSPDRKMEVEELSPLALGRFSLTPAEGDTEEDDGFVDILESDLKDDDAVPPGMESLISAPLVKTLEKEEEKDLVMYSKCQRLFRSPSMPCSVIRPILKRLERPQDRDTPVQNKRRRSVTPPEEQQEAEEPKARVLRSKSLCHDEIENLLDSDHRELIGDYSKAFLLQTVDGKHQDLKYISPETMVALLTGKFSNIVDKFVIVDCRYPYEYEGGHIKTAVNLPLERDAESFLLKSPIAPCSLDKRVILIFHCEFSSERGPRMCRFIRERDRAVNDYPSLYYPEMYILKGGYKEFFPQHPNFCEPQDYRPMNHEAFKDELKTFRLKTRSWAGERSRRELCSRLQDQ
Experiment: inhibition of Cdc25B catalytic domain activity – biochemical, with glutathione, probe assessment, dose response (AID 671)

Row | SMILES | IC50
1 | O=C(Nc1ccc2nc(-c3ccco3)c(-c3ccco3)nc2c1)N1CCCCCC1 | 23.7 µM
2 | Cc1ccc2c(c1C)NC(C(=O)O)C1CC=CC21 (stereo unspecified) | 4.73 µM
3 | O=C(O)C1Nc2c(O)cccc2C2C=CCC12 (stereo unspecified) | 6.76 µM
4 | Cn1ncnc2c(=O)n(C)c(=O)nc1-2 | 35.5 µM
5 | COc1cccc2c(C)c(C(=O)O)[nH]c12 | 6.8 µM
6 | O=C1C=Cc2ccccc2C1=O [1,2-dihydronaphthalene-1,2-dione] | 25 µM
7 | CCn1nc(-c2ccccc2)nc2c(=O)n(C)c(=O)nc1-2 [1-Ethyl-6-methyl-3-phenyl-1H-pyrimido[5,4-e][1,2,4]triazine-5,7-dione] | > 50 µM
8 | CCn1nc(-c2cccs2)nc2c(=O)n(C)c(=O)nc1-2 [1-ethyl-6-methyl-3-thiophen-2-yl-pyrimido[5,4-e][1,2,4]triazine-5,7-dione] | > 50 µM
9 | O=C1Cc2ccccc2C(=O)N1CCc1ccccc1 [2-(2-phenylethyl)-4H-isoquinoline-1,3-dione] | > 50 µM
10 | N#Cc1c(N)sc(=S)c2c1CCN(Cc1ccccc1)C2 [3-Amino-7-benzyl-1-thioxo-5,6,7,8-tetrahydro-1H-thiopyrano[3,4-c]pyridine-4-carbonitrile] | 43 µM
11 | CC(=O)Nc1cc(OC(C)=O)c2nonc2c1OC(C)=O [Acetic acid 7-acetoxy-5-acetylamino-benzo[1,2,5]oxadiazol-4-yl ester] | > 50 µM
12 | Oc1nc(Nc2ccccc2)cc2ccccc12 [MLS000043701] | > 50 µM
13 | Cc1c(N=c2c(=O)c3ccccc3c2=O)c(=O)n(-c2ccccc2)n1C [MLS000105950] | > 50 µM
14 | CCOc1ccc2noc3c2c1C(=O)c1ccccc1-3 [MLS000106837] | > 50 µM
15 | c1ccc(CSc2nnc(-c3ccco3)c(-c3ccco3)n2)cc1 [MLS-0029114.0001] | 11.1 µM
16 | O=C(OC1CCCCC1)c1ccc2c(c1)C1C=CCC1C(C(=O)O)N2 (stereo unspecified) [SMR000019385] | 2.79 µM
17 | N#Cc1c(N2CCCC2)nc(N)c2c(N)nc(N3CCCC3)cc12 [SMR000061605] | > 50 µM

Continued, values first:

Row | IC50 | SMILES
18 | > 50 µM | [O-]/[N+](=C\c1ccncc1)c1ccccc1
19 | > 50 µM | [O-]/[N+](=C\c1ccc(OC(F)F)cc1)c1ccccc1 [1-[4-(difluoromethoxy)phenyl]-N-phenylmethanimine oxide]
20 | > 50 µM | Cc1ccccc1Nc1cc2ccccc2c(O)n1 [3-[(2-methylphenyl)amino]-2H-isoquinolin-1-one]
21 | 2.13 µM | COc1ccc(Br)cc1C=c1sc2nc(-c3ccco3)nn2c1=O [5-[(5-bromanyl-2-methoxy-phenyl)methylidene]-2-(furan-2-yl)-[1,3]thiazolo[3,2-b][1,2,4]triazol-6-one]
22 | > 50 µM | CCOC(=O)C(C(=O)OCC)c1cc(Br)c2noc3c2c1C(=O)c1ccccc1-3 [MLS000038842]
23 | > 50 µM | COc1ccc2noc3c2c1C(=O)c1ccccc1-3 [MLS000106874]
24 | > 50 µM | O=C(NC1(O)C(=O)c2ccccc2C1=O)c1ccccc1 [N-(2-hydroxy-1,3-dioxo-2-indenyl)benzamide]
25 | 8.23 µM | COc1cccc2c1NC(C(=O)O)C1CC=CC21 (stereo unspecified) [SMR000009698]
26 | > 50 µM | Nc1cccc2cnccc12 [isoquinolin-5-amine]

Source: BindingDB's records for doi:10.7270/Q2J101KZ (University of Pittsburgh, 2007)
